Experimental data reported in US6995143B2, “Macrolides with antibacterial activity” (Basilea Pharmaceutica AG, priority 2002, dated 2006).
In brackets after ≈: the same amount, converted by molar mass.

Experiments:
Assay type in all cases: cell-based
[1] = system: Escherichia coli ATCC 25922; test: MIC, standard microdilution technique
Procedure, shortened: (§1)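 Susceptibility testing used the NCCLS fifth-edition approved standard for aerobic organisms (M7-A5).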

[2] = system: Staphylococcus aureus 1086; test: MIC, standard microdilution technique
Procedure, shortened: as §1

[3] = system: Staphylococcus aureus 745; test: MIC, standard microdilution technique
Procedure, shortened: as §1

[4] = system: Staphylococcus aureus ATCC 29213; test: MIC, standard microdilution technique
Procedure, shortened: as §1

[5] = system: Streptococcus pneumoniae 12288; test: MIC, standard microdilution technique
Procedure, shortened: as §1

[6] = system: Streptococcus pneumoniae SL199T; test: MIC, standard microdilution technique
Procedure, shortened: as §1

[7] = system: Streptococcus pneumoniae l/l; test: MIC, standard microdilution technique
Procedure, shortened: as §1

[8] = system: Streptococcus pneumoniae ¼; test: MIC, standard microdilution technique
Procedure, shortened: as §1

[9] = system: Haemophilus influenzae 12214; test: MIC, standard agar dilution method using HTM medium
Procedure, shortened: (§2)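 The reported MIC comes from dilution testing done to NCCLS guidance M7-A5. Organism: Haemophilus influenzae.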

[10] = system: Haemophilus influenzae B1501; test: as above
Procedure, shortened: as §2

[11] = system: Haemophilus influenzae QK12/87; test: as above
Procedure, shortened: as §2

[12] = system: Haemophilus influenzae QK50; test: as above
Procedure, shortened: as §2

Row | Compound | minimum inhibitory concentration (MIC), Strain D [1] [µg/mL] | minimum inhibitory concentration (MIC), Strain B [2] | minimum inhibitory concentration (MIC), Strain C [3] [µg/mL] | minimum inhibitory concentration (MIC), Strain A [4] | minimum inhibitory concentration (MIC), Strain H [5] [µg/mL] | minimum inhibitory concentration (MIC), Strain G [6] | minimum inhibitory concentration (MIC), Strain E [7] | minimum inhibitory concentration (MIC), Strain F [8] | minimum inhibitory concentration (MIC), Strain K [9] [µg/mL] | minimum inhibitory concentration (MIC), Strain M [10] [µg/mL] | minimum inhibitory concentration (MIC), Strain I [11] [µg/mL] | minimum inhibitory concentration (MIC), Strain L [12] [µg/mL]
1 | CC[C@H]1OC(=O)[C@H](C)C(=O)[C@H](C)[C@@H](O[C@@H]2O[C@H](C)C[C@H](N(C)C)[C@H]2O)[C@](C)(OC)C[C@@H](C)C(=O)[C@H](C)[C@H]2[C@@H](SCCNc3ncnc4[nH]cnc34)C(=O)O[C@@]21C [Example 51] | 32 (≈ 39.8 µM) | 1 µg/mL (≈ 1.24 µM) | >32 | 1 µg/mL (≈ 1.24 µM) | 8 (≈ 9.94 µM) | 0.5 µg/mL (≈ 0.621 µM) | <=0.06 μg/ml | 0.125 µg/mL (≈ 0.155 µM) | 4 (≈ 4.97 µM) | 2 (≈ 2.48 µM) | 1 (≈ 1.24 µM) | 1 (≈ 1.24 µM)
2 | CC[C@H]1OC(=O)[C@H](C)C(=O)[C@H](C)[C@@H](O[C@@H]2O[C@H](C)C[C@H](N(C)C)[C@H]2O)[C@](C)(OC)C[C@@H](C)C(=O)[C@H](C)[C@H]2[C@@H](SCCNc3nc(C)nc4ccc(Br)cc34)C(=O)O[C@@]21C [Example 52] | >32 | <=0.06 μg/ml | >32 | 0.125 µg/mL (≈ 0.138 µM) | 8 (≈ 8.81 µM) | 4 µg/mL (≈ 4.41 µM) | <=0.06 μg/ml | 0.125 µg/mL (≈ 0.138 µM) | 16 (≈ 17.6 µM) | 8 (≈ 8.81 µM) | 8 (≈ 8.81 µM) | 8 (≈ 8.81 µM)
3 | CC[C@H]1OC(=O)[C@H](C)C(=O)[C@H](C)[C@@H](O[C@@H]2O[C@H](C)C[C@H](N(C)C)[C@H]2O)[C@](C)(OC)C[C@@H](C)C(=O)[C@H](C)[C@H]2[C@@H](SCC(=O)c3csc4ccccc34)C(=O)O[C@@]21C [Example 54] | >32 | 0.5 µg/mL (≈ 0.611 µM) | >32 | 1 µg/mL (≈ 1.22 µM) | >32 | >32 µg/mL | <=0.06 μg/ml | 32 µg/mL (≈ 39.1 µM) | 16 (≈ 19.6 µM) | 8 (≈ 9.78 µM) | 16 (≈ 19.6 µM) | 32 (≈ 39.1 µM)
4 | CC[C@H]1OC(=O)[C@H](C)C(=O)[C@H](C)[C@@H](O[C@@H]2O[C@H](C)C[C@H](N(C)C)[C@H]2O)[C@](C)(OC)C[C@@H](C)C(=O)[C@H](C)[C@H]2[C@@H](SCC(=O)Nc3ccc(C)c(C)c3)C(=O)O[C@@]21C [Example 55] | >32 | 0.125 µg/mL (≈ 0.155 µM) | >32 | 0.25 µg/mL (≈ 0.311 µM) | 2 (≈ 2.48 µM) | 0.25 µg/mL (≈ 0.311 µM) | <=0.06 μg/ml | <=0.06 μg/ml | 8 (≈ 9.94 µM) | 8 (≈ 9.94 µM) | 8 (≈ 9.94 µM) | 16 (≈ 19.9 µM)
5 | CC[C@H]1OC(=O)[C@@](C)(F)C(=O)[C@H](C)[C@@H](O[C@@H]2O[C@H](C)C[C@H](N(C)C)[C@H]2O)[C@](C)(OC)C[C@@H](C)C(=O)[C@H](C)[C@H]2[C@@H](S(=O)(=O)CCCn3cnc4c(N)ncnc43)C(=O)O[C@@]21C [Example 58] | >32 | 0.5 µg/mL (≈ 0.575 µM) | >32 | 0.5 µg/mL (≈ 0.575 µM) | 8 (≈ 9.21 µM) | 0.5 µg/mL (≈ 0.575 µM) | <=0.06 μg/ml | <=0.06 μg/ml | 4 (≈ 4.6 µM) | 4 (≈ 4.6 µM) | 4 (≈ 4.6 µM) | 4 (≈ 4.6 µM)
6 | (3R or S, 3aR, 4R or S, 6R, 8R, 9R, 10R, 12S, 15R, 15aS) -3-[[3-[6-Amino-9H-purine-9-yl]propyl]thio]-15-ethyl-12-fluorooctahydro-8-methoxy-4,6,8,10,12,15a-hexamethyl-3-9-[[3,4,6-trideoxy-3-(dimethylamino)-β-D-xylo-hexopyranosyl]oxy]-2H-furo [2,3-c] oxacyclotetradecin-2,5,11,13 (3H,6H,12H)-tetrone [Example 13] | 32 | <=0.06 μg/ml | >32 | <=0.06 μg/ml | 0.25 | <=0.06 μg/ml | <=0.06 μg/ml | <=0.06 μg/ml | 2 | 2 | 2 | 2
7 | (3R or S, 3aS, 4R or S, 6R, 8R, 9R, 10R, 12R, 15R, 15aS) -15-Ethylhexadecahydro-4,6,8,10,12,15a-hexamethyl-2,5,11,13-tetraoxo-8-[[(2E)-3-(3-quinolyl)-2-propen-1-yl]oxy]-9-[[3,4,6-trideoxy-3-(dimethylamino)-β-D-xylo-hexopyranosyl]oxy]-2H-furo [2,3-c] oxacyclotetradecin-3-carbonitrile [Example 15] | >32 | <=0.06 μg/ml | 32 | <=0.06 μg/ml | 16 | 2 µg/mL | <=0.06 μg/ml | 0.25 µg/mL | 4 | 2 | 4 | 2
